# Assay results: ChEMBL document CHEMBL4823252 (J Med Chem, 2021)
# Active and inactive are the calls of the source. The rule behind the calls is not given here.
# Experiments:
# [1] = Toxicity in mouse xenografted with human MOLM-13 cells assessed as induction of cytoplasmic condensation at 40 mg/kg, po administered for 20 days by hematoxylin and eosin staining assay; format: organism-based; conditions: in vivo, 480 h, time 20 day
# MV4-11 [2] = test: Antitumor activity against human MV4-11 cells xenografted in mouse assessed as tumor growth inhibition at 5 mg/kg, po administered for 20 days measured once every 2 days relative to control; format: functional; conditions: MV4-11, po, 480 h, time 20 day, read-out: TGI
# MOLM-13 [3] = test: Antitumor activity against human MOLM-13 cells xenografted in mouse assessed as tumor regression at 40 mg/kg, po administered for 16 days measured on day 4 relative to control; format: functional; conditions: time 16 day
# Homo sapiens = species: Homo sapiens; test: Binding affinity to FLT3 ITD F691L mutant (unknown origin) at 1000 nM relative to control
# [4] = system: Receptor-type tyrosine-protein kinase FLT3 (Homo sapiens), P36888 [UNDEFINED MUTATION]; test: Binding affinity to FLT3 ITD mutant (unknown origin) at 1000 nM relative to control
# MOLM-13 [5] = test: Induction of cell cycle arrest in human MOLM-13 cells assessed as accumulation at G2/M phase at 100 nM incubated for 24 hrs by flow cytometry (reference value: […]); format: functional
# MV4-11 [6] = test: Antitumor activity against human MV4-11 cells xenografted in mouse assessed as tumor growth inhibition at 10 mg/kg, po administered for 20 days measured once every 2 days relative to control; format: functional; conditions: MV4-11, po, 480 h, time 20 day, read-out: TGI
# HL-60 = test: Antiproliferative activity against human HL-60 cells measured after 72 hrs by CCK8 assay; format: functional, cell-based; conditions: HL-60, 72 h
# [7] = system: Receptor-type tyrosine-protein kinase FLT3 (Homo sapiens), P36888 [D835V]; test: Binding affinity to FLT3 D835V mutant (unknown origin) at 1000 nM relative to control
# [8] = molecular target: Receptor-type tyrosine-protein kinase FLT3 (Homo sapiens) (UniProt P36888); test: Inhibition of FLT3 in human MV4-11 cells assessed as reduction in STAT5 phosphorylation at 10 uM incubated for 2 hrs by Western blot analysis; format: cell-based
# [9] = system: Receptor-type tyrosine-protein kinase FLT3 (Homo sapiens), P36888 [K663Q]; test: Binding affinity to FLT3 K663Q mutant (unknown origin) at 1000 nM relative to control
# MOLM-13 [10] = test: Antitumor activity against human MOLM-13 cells xenografted in po dosed mouse assessed as inhibition of tumor cell proliferation administered for 16 days measured once for every 2 days by Ki67 staining based immunohistochemical analysis; format: functional, organism-based; conditions: time 16.0 day
# [11] = molecular target: Receptor-type tyrosine-protein kinase FLT3 (Homo sapiens, UniProt P36888, D835Y); test: Inhibition of FLT3 D835Y mutant (unknown origin) incubated for 30 mins in presence of ATP by mobility shift assay
# [12] = Toxicity in mouse xenografted with human MV4-11 cells assessed as effect on lung at 2.5 to 10 mg/kg, po administered for 16 days by hematoxylin and eosin staining assay; format: organism-based; conditions: in vivo, 384 h, dose 2.5-10 mg/kg, time 16 day
# U-937 = test: Antiproliferative activity against human U-937 cells measured after 72 hrs by CCK8 assay; format: functional, cell-based; conditions: U-937, 72 h
# THP-1 = test: Antiproliferative activity against human THP-1 cells measured after 72 hrs by CCK8 assay; format: functional, cell-based; conditions: THP-1, 72 h
# [13] = Toxicity in mouse xenografted with human MOLM-13 cells assessed as effect on lung at 10 to 40 mg/kg, po administered for 20 days by hematoxylin and eosin staining assay; format: organism-based; conditions: in vivo, 480 h, dose 10-40 mg/kg, time 20 day
# MV4-11 [14] = test: Antitumor activity against human MV4-11 cells xenografted in mouse assessed as tumor growth inhibition at 2.5 mg/kg, po administered for 20 days measured once every 2 days relative to control; format: functional; conditions: MV4-11, po, 480 h, time 20 day, read-out: TGI
# MOLM-13 [15] = test: Induction of apoptosis in human MOLM-13 cells assessed as viable cells at 10 nM incubated for 24 hrs by flow cytometry (reference value: 92.83%); format: functional; conditions: read-out: Activity
# [16] = molecular target: Platelet-derived growth factor receptor beta (Homo sapiens, UniProt P09619); test: Inhibition of PDGFRbeta (unknown origin) incubated for 30 mins in presence of ATP by mobility shift assay
# Sequence of Platelet-derived growth factor receptor beta (P09619 whole entry): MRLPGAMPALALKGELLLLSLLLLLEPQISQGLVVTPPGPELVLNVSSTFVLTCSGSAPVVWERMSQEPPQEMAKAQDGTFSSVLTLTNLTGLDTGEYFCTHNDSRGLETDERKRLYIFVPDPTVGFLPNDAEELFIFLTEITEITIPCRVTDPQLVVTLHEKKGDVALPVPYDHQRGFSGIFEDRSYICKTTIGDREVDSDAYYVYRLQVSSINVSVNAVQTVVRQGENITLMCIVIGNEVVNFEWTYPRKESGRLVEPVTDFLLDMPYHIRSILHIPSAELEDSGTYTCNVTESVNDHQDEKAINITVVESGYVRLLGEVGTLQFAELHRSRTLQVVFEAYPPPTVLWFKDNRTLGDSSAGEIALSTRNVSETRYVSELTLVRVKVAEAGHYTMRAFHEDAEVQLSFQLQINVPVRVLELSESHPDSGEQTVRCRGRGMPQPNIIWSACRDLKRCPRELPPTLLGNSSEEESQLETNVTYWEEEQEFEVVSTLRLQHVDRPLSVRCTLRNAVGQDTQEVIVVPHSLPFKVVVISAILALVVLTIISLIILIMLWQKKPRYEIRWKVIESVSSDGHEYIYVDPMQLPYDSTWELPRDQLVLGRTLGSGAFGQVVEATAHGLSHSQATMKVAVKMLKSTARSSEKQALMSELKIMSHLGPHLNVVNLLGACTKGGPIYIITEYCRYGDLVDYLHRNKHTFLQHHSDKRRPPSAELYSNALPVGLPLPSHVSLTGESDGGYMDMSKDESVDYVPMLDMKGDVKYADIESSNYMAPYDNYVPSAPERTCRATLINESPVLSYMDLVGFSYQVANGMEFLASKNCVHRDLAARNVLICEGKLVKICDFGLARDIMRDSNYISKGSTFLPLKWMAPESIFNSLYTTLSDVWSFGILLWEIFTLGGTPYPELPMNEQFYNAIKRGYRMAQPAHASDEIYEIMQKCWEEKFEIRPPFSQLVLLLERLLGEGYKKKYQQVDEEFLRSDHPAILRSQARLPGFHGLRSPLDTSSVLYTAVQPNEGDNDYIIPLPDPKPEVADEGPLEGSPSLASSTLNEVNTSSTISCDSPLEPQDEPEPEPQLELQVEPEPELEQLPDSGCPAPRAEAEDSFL
# [17] = molecular target: Receptor-type tyrosine-protein kinase FLT3 (Homo sapiens) (UniProt P36888); test: Inhibition of FLT3 in human MOLM-13 cells assessed as reduction in ERK phosphorylation incubated for 2 hrs by Western blot analysis; format: cell-based
# [18] = AUC (0 to infinity) in Sprague-Dawley rat at 1 mg/kg, iv; format: ADME, organism-based; design: route intravenous, time infinity, dose 1 mg/kg; conditions: in vivo
# HeLa = test: Antiproliferative activity against human HeLa cells measured after 72 hrs by CCK8 assay; format: functional, cell-based
# HCT-116 = test: Antiproliferative activity against human HCT116 cells measured after 72 hrs by CCK8 assay; format: functional, cell-based; conditions: HCT-116, 72 h
# [19] = Tmax in Sprague-Dawley rat at 10 mg/kg, po; format: ADME, organism-based; conditions: in vivo
# [20] = Toxicity in mouse xenografted with human MOLM-13 cells assessed as effect on heart at 10 to 40 mg/kg, po administered for 20 days by hematoxylin and eosin staining assay; format: organism-based; conditions: in vivo, 480 h, dose 10-40 mg/kg, time 20 day
# [21] = molecular target: Mast/stem cell growth factor receptor Kit (Homo sapiens, UniProt P10721); test: Inhibition of c-KIT (unknown origin) incubated for 30 mins in presence of ATP by mobility shift assay
# Sequence of Mast/stem cell growth factor receptor Kit (P10721 whole entry): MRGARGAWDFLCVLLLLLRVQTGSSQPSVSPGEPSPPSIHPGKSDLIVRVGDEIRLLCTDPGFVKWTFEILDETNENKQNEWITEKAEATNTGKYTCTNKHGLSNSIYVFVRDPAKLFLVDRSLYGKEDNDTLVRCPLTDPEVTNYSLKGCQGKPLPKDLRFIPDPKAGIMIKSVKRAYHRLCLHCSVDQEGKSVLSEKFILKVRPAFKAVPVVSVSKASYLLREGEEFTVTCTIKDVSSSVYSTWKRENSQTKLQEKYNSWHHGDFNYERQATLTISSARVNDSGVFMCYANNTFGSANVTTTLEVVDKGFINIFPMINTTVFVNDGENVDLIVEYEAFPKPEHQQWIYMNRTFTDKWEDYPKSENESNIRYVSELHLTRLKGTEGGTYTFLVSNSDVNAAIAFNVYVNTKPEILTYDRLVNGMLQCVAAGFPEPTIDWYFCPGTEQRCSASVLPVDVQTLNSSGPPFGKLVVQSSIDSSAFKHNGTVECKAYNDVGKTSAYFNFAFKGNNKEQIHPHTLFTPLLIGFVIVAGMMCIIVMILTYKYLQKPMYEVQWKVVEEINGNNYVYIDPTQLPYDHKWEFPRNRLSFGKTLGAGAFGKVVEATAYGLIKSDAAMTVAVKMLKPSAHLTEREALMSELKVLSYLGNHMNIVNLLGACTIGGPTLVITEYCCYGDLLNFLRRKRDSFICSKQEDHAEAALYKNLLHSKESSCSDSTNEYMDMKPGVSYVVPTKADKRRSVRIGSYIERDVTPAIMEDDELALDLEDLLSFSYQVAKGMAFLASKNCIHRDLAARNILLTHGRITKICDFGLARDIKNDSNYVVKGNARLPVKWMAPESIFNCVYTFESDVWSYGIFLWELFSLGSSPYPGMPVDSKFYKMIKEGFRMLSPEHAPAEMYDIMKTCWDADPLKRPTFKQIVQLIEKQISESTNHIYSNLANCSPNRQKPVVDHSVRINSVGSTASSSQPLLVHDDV
# [22] = molecular target: Receptor-type tyrosine-protein kinase FLT3 (Homo sapiens) (UniProt P36888); test: Inhibition of FLT3 in human MV4-11 cells assessed as suppression of autophosphorylation at tyr589/591 residue at 10 uM incubated for 2 hrs by Western blot analysis; format: cell-based; design: scale not given: the % may be the effect or the level left
# [23] = system: Receptor-type tyrosine-protein kinase FLT3 (Homo sapiens), P36888 [D835Y]; test: Binding affinity to FLT3 D835Y mutant (unknown origin) at 1000 nM relative to control
# [24] = Toxicity in mouse xenografted with human MOLM-13 cells assessed as effect on spleen at 10 to 40 mg/kg, po administered for 20 days by hematoxylin and eosin staining assay; format: organism-based; conditions: in vivo, 480 h, dose 10-40 mg/kg, time 20 day
# MV4-11 [25] = test: Induction of cell cycle arrest in human MV4-11 cells assessed as accumulation at sub-G1 phase at 10 nM incubated for 24 hrs by flow cytometry (reference value: […]%); format: functional
# MOLM-13 [26] = test: Antiproliferative activity against human quizartinib-resistant MOLM-13 cells at 333 nM incubated for 72 hrs by CCK8 assay relative to control; format: functional
# HT-29 = test: Antiproliferative activity against human HT-29 cells measured after 72 hrs by CCK8 assay; format: functional, cell-based; conditions: HT-29, 72 h
# MOLM-13 [27] = test: Antitumor activity against human MOLM-13 cells xenografted in mouse assessed as tumor growth inhibition at 20 mg/kg, po administered for 16 days measured once every 2 days relative to control; format: functional; conditions: MOLM-13, po, 384 h, time 16 day, read-out: TGI
# [28] = Toxicity in mouse xenografted with human MV4-11 cells assessed as effect on spleen at 2.5 to 10 mg/kg, po administered for 16 days by hematoxylin and eosin staining assay; format: organism-based; conditions: in vivo, 384 h, dose 2.5-10 mg/kg, time 16 day
# MV4-11 [29] = test: Induction of cell cycle arrest in human MV4-11 cells assessed as accumulation at sub-G1 phase at 1 nM incubated for 24 hrs by flow cytometry (reference value: […]%); format: functional
smiles,measurement,setting,value
CCN(CC)CCNC(=O)c1c(C)[nH]c(/C=C2\C(=O)Nc3ccc(F)cc32)c1C [SUNITINIB],Activity,[1],Toxic
same,inhibition in vivo at 5 mg/kg,MV4-11 [2],29.9%
Cc1c(NC(=O)CCN2CCCC2)c[nH]c1/C=C1\C(=O)Nc2ccc(F)cc21,Activity,MOLM-13 [3],100%
same,Activity,Homo sapiens,Active
same,Activity,[4],Active
same,Activity,MOLM-13 [5],0.9%
same,inhibition in vivo at 10 mg/kg,MV4-11 [6],93.4%
same,IC50,HL-60,4.72 µM
same,Activity,[7],Active
same,Activity,[8],Active
same,Activity,[9],Active
same,Activity,MOLM-13 [10],Dose-Dependent Effect
same,IC50,[11],0.0019 µM
same,Activity,[12],Non-Toxic
same,IC50,U-937,5.26 µM
same,IC50,THP-1,3.15 µM
same,Activity,[13],Non-Toxic
same,inhibition in vivo at 2.5 mg/kg,MV4-11 [14],55.7%
same,viability at 0.01 µM,MOLM-13 [15],62.3%
same,IC50,[16],0.0418 µM
same,Activity,[17],Dose-Dependent Effect
same,AUC(0-inf),[18],2970 ng·h/mL
same,IC50,HeLa,1.96 µM
same,IC50,HCT-116,3.98 µM
same,Tmax,[19],2.7 h
same,Activity,[20],Non-Toxic
same,IC50,[21],> 1 µM
same,Activity,[22],100%
same,Activity,[23],Active
same,Activity,[24],Non-Toxic
same,Activity,MV4-11 [25],28.68%
same,Activity,MOLM-13 [26],13.4%
same,IC50,HT-29,1.54 µM
same,inhibition in vivo at 20 mg/kg,MOLM-13 [27],98%
same,Activity,[28],Non-Toxic
same,Activity,MV4-11 [29],13.92%
